Measured values: article PMC3375898 (Natural Product Communications, 2011)
Like-named read-outs stand apart in the source and are kept apart here.

Columns and labels:
Assay type in all cases: cell-based
[1] = system: MCF-7 human breast cancer cells; experiment: Cancer bioassay, cytotoxicity by NCI protocol
[2] = system: chloroquine-resistant strain (Indochina W2) of P. falciparum; experiment: Malaria bioassay, PicoGreen fluorometric antiplasmodial assay; settings: Plasmodium falciparum
[3] = system: recombinant Tulahuen clone C4 of T. cruzi, intracellular amastigotes in Vero cells; experiment: Chagas' disease bioassay, beta-galactosidase colorimetric assay; settings: Trypanosoma cruzi, 120 h, read-out: IC50 T. cruzi
[4] = Mammalian cell cytotoxicity bioassay; settings: African green monkey, Vero cells (kidney)

## COc1cccc2c1C(=O)c1c(O)c3c(c(O)c1C2=O)C[C@@](O)(C(=O)CO)C[C@@H]3O[C@H]1C[C@H](N)[C@H](O)[C@H](C)O1 [Adriamycin, reference compound]
[1]; MCF7, read-out: IC50 MCF-7, positive control
  IC50: 2e-05 to 0.0003 µM

## CCN(CC)CCCC(C)Nc1ccnc2cc(Cl)ccc12 (stereo not shown) [Chloroquine, reference compound]
[2]; W2, read-out: IC50 P. falciparum, positive control
  IC50: 0.08 to 0.1 µM

## COc1c(CC(C)O)c2c3c(CC(C)O)c(OC)c(=O)c4c(O)cc5c(c6c(cc(O)c(c1=O)c62)OCO5)c43 (stereo not shown) [Compound 1, cercosporin]
[2]; W2, read-out: IC50 P. falciparum
  IC50: 1.03 ± 0.03 µM
[3]
  IC50: 1.08 ± 0.03 µM
[1]; MCF7, read-out: IC50 MCF-7
  IC50: 4.68 ± 0.2 µM
[4]
  IC50 at 4 h: 1.54 ± 0.1 µM

## CC1CS(=O)(=O)CCN1/N=C/c1ccc([N+](=O)[O-])o1 (stereo not shown) [Nifurtimox, reference compound]
[3]
  IC50: 10 to 16 µM
